The target in this assay is DppA (Rv3666c), substrate-binding protein of the Dpp transporter (Mycobacterium tuberculosis, UniProt I6X811). Nature of the assay: […]; also difference absorption spectroscopy.

One may read the Kd as a measure of binding affinity in units of concentration. Low values mean higher affinity, high ones lower affinity.

Sequence of DppA (Rv3666c), substrate-binding protein of the Dpp transporter (I6X811 entry or part of it): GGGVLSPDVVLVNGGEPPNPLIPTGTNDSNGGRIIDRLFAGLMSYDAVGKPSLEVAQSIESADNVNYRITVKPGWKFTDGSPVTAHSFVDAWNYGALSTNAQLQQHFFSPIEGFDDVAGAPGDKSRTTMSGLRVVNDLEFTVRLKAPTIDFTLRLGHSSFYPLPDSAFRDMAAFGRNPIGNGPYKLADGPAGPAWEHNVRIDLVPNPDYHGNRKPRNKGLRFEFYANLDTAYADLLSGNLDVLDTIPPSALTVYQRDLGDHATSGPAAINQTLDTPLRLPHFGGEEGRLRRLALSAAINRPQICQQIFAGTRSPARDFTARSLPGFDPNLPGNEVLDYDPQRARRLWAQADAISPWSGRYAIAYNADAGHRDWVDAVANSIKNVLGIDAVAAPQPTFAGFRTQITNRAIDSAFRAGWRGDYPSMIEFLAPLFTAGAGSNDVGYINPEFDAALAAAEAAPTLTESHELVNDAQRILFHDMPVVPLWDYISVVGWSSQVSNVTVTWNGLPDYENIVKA

As for `C=CC1=C(C)C2=Cc3c(C=C)c(C)c4[n]3[Fe]([Cl])[n]3c(c(C)c(CCC(=O)O)c3=CC3=NC(=C4)C(C)=C3CCC(=O)O)=CC1=N2` [hemin], the Kd was about 1500 nM.

The values above are taken from publication PMC6751184, “Heme and hemoglobin utilization by Mycobacterium tuberculosis” (Nature Communications, 2019).
